Results as given in the supplement of paper PMC11482750.
± gives the standard deviation of the averaged measurements.

Legend:
Experiment in all cases: control-subtracted net OSN firing rate; higher = stronger neuronal activation
[1] = system: S. flava pb1a-like
Procedure: (§1)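 Dose-response single sensillum recordings from pb1a (D. melanogaster Canton-S) and pb1a-like (Scaptomyza) maxillary palp OSNs. Odorants were given at 10^-5 to 10^-2 vol/vol in mineral oil (γ-hexalactone in DMSO) as 1 s pulses. The read-out is the control-subtracted net spikes/s in a 0.5 s window.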

[2] = system: S. montana pb1a-like
Procedure: as §1

[3] = system: Canton-S pb1a
Procedure: as §1

[4] = system: S. hsui pb1a-like
Procedure: as §1

[5] = system: S. pallida pb1a-like
Procedure: as §1

[6] = odorant dilution (vol/vol): 10^-2
[7] = odorant dilution (vol/vol): 10^-3
[8] = odorant dilution (vol/vol): 10^-4
[9] = odorant dilution (vol/vol): 10^-5

Compound | control-subtracted net OSN firing rate [1, 6] [spikes/s] | control-subtracted net OSN firing rate [1, 7] [spikes/s] | control-subtracted net OSN firing rate [1, 8] [spikes/s] | control-subtracted net OSN firing rate [1, 9] [spikes/s] | control-subtracted net OSN firing rate [2, 6] [spikes/s] | control-subtracted net OSN firing rate [2, 7] [spikes/s] | control-subtracted net OSN firing rate [2, 8] [spikes/s] | control-subtracted net OSN firing rate [2, 9] [spikes/s] | control-subtracted net OSN firing rate [3, 6] [spikes/s] | control-subtracted net OSN firing rate [3, 7] [spikes/s] | control-subtracted net OSN firing rate [3, 8] [spikes/s] | control-subtracted net OSN firing rate [3, 9] [spikes/s] | control-subtracted net OSN firing rate [4, 6] [spikes/s] | control-subtracted net OSN firing rate [4, 7] [spikes/s] | control-subtracted net OSN firing rate [4, 8] [spikes/s] | control-subtracted net OSN firing rate [4, 9] [spikes/s] | control-subtracted net OSN firing rate [5, 6] [spikes/s] | control-subtracted net OSN firing rate [5, 7] [spikes/s] | control-subtracted net OSN firing rate [5, 8] [spikes/s] | control-subtracted net OSN firing rate [5, 9] [spikes/s]
CCCCN=C=S [butyl isothiocyanate] | 146 ± 29 | 65.7 ± 36 | 21.7 ± 10 | -4 ± 10 | 124 ± 14 | 42.3 ± 22 | 10 ± 14 | 0.667 ± 9.1 |  |  |  |  |  |  |  |  |  |  |  | 
CCC(C)N=C=S (centres undefined) [sec-butyl isothiocyanate] | 76.6 ± 22 | 19.7 ± 11 | 3.14 ± 6.4 | -2.57 ± 5.9 | 72.7 ± 9.3 | 13.3 ± 9.4 | -0.667 ± 7.1 | 0.667 ± 4.8 |  |  |  |  |  |  |  |  |  |  |  | 
CC(C)CN=C=S [isobutyl isothiocyanate] | 179 ± 22 | 93 ± 16 | 23.3 ± 7.5 | 5.67 ± 4.6 | 164 ± 20 | 84.7 ± 14 | 17.3 ± 5.9 | 2 ± 5.8 |  |  |  |  |  |  |  |  |  |  |  | 
CCC/C=C/C=O [trans-2-hexenal] | 169 ± 30 | 159 ± 33 | 136 ± 33 | 58.6 ± 19 | 187 ± 11 | 156 ± 23 | 72 ± 19 | 26.7 ± 4.8 | 121 ± 35 | 34.7 ± 14 | 5 ± 3.5 | -3 ± 6.4 | 130 ± 48 | 55.7 ± 31 | 9 ± 11 | 2.67 ± 11 | 145 ± 31 | 119 ± 40 | 26.4 ± 24 | 5.78 ± 13
CCCC(=O)OCC [ethyl butyrate] | 208 ± 60 | 170 ± 59 | 52.8 ± 54 | 2 ± 7.4 | 236 ± 60 | 150 ± 70 | 42.5 ± 25 | 7.5 ± 3.5 | 211 ± 10 | 209 ± 12 | 76.3 ± 41 | 12.9 ± 4.5 | 150 ± 38 | 118 ± 43 | 46 ± 21 | 11 ± 22 | 142 ± 26 | 135 ± 24 | 111 ± 39 | 20.2 ± 19
C=CCN=C=S [allyl isothiocyanate] | 169 ± 40 | 117 ± 38 | 50 ± 28 | 11.4 ± 14 | 168 ± 26 | 118 ± 33 | 58.3 ± 35 | 20 ± 9.4 | 153 ± 42 | 27 ± 7.3 | 2 ± 5.9 | -3.33 ± 5 | 132 ± 49 | 51.2 ± 27 | 6.75 ± 6 | -1 ± 12 | 142 ± 25 | 115 ± 44 | 33.8 ± 19 | 5.56 ± 14
CCC1CCC(=O)O1 (centres undefined) [γ-hexalactone] | 182 ± 37 | 42.6 ± 26 | 3.14 ± 9.9 | -3.43 ± 8 | 186 ± 42 | 93.7 ± 28 | 21.3 ± 13 | -2 ± 9.8 | 286 ± 56 | 217 ± 84 | 33 ± 18 | 22.7 ± 15 | 163 ± 14 | 128 ± 14 | 53 ± 17 | 43.7 ± 11 | 152 ± 15 | 98.7 ± 50 | 34.3 ± 35 | 11.3 ± 15
